Assay results from paper PMC9386018, “A lymphatic-absorbed multi-targeted kinase inhibitor for myelofibrosis therapy” (Nature Communications, 2022).
“And” between values parts separate entries of the source, which are not always exact repeats. Equal entries are not always repeated.

Assay: Pharmacokinetic analysis of plasma after intravenous and oral dosing
Details: for concentration at 0.167 h / concentration at 0.5 h / concentration at 1 h / concentration at 2 h / concentration at 4 h / concentration at 7 h / concentration at 16 h: female, CD-1, mouse, plasma
Experimental: Samples were centrifuged at 15,000 rpm for 10 min, then blood plasma was collected from the upper layer and frozen at −80 °C until analysis. […] Sample processing, chromatographic separation, MS, and MS/MS parameters used for analysis were determined by the core. […] Standard curves for peak area ratio of compound to internal standard (Astd/AIstd) vs. compound concentration were used to determine sample analyte concentrations through linear regression with a weighting average of 1/X^2. […] All pharmacokinetic parameters were estimated using non-compartmental analysis with Phoenix/WINONLIN, and provided by the core along with calculated sample analyte concentrations. Data was generated from n ≥ 3 individual animals sampled per time point per compound for each method of dosing.

Concentration (Supplementary Figure 6a, i.v., Time 0.167 h, individual replicates): 779 ng/mL and 846 ng/mL
Concentration (Supplementary Figure 6a, i.v., Time 0.5 h, individual replicates): 677 ng/mL and 624 ng/mL
Concentration (Supplementary Figure 6a, i.v., Time 1 h, individual replicates): 440 ng/mL and 492 ng/mL
Concentration (Supplementary Figure 6a, i.v., Time 2 h, individual replicates): 490 ng/mL and 355 ng/mL
Concentration (Supplementary Figure 6a, i.v., Time 4 h, individual replicates): 243 ng/mL and 164 ng/mL
Concentration (Supplementary Figure 6a, i.v., Time 7 h, individual replicates): 72.7 ng/mL and 57.8 ng/mL
Concentration (Supplementary Figure 6a, i.v., Time 16 h, individual replicates): 4.08 ng/mL
Concentration (Supplementary Figure 6a, i.v., Time 24 h, individual replicates): 5.08 ng/mL and 1.82 ng/mL and 2.98 ng/mL
Concentration (Supplementary Figure 6a, p.o., Time 0.167 h, individual replicates): 507 ng/mL and 993 ng/mL and 283 ng/mL
Concentration (Supplementary Figure 6a, p.o., Time 0.5 h, individual replicates): 891 ng/mL and 764 ng/mL
Concentration (Supplementary Figure 6a, p.o., Time 1 h, individual replicates): 1540 ng/mL and 1240 ng/mL
Concentration (Supplementary Figure 6a, p.o., Time 2 h, individual replicates): 490 ng/mL and 399 ng/mL
Concentration (Supplementary Figure 6a, p.o., Time 4 h, individual replicates): 412 ng/mL and 334 ng/mL
Concentration (Supplementary Figure 6a, p.o., Time 7 h, individual replicates): 463 ng/mL and 555 ng/mL
Concentration (Supplementary Figure 6a, p.o., Time 16 h, individual replicates): 362 ng/mL and 491 ng/mL
Concentration (Supplementary Figure 6a, p.o., Time 24 h, individual replicates): 443 ng/mL and 223 ng/mL and 212 ng/mL
concentration at 0.167 h (iv, 15 mg kg^−1, Concentration, Supplementary Figure 6a, Time 0.167 h, individual replicates): 934 ng/mL
concentration at 0.5 h (iv, 15 mg kg^−1, Concentration, Supplementary Figure 6a, Time 0.5 h, individual replicates): 923 ng/mL
concentration at 1 h (iv, 15 mg kg^−1, Concentration, Supplementary Figure 6a, Time 1 h, individual replicates): 602 ng/mL
concentration at 2 h (iv, 15 mg kg^−1, Concentration, Supplementary Figure 6a, Time 2 h, individual replicates): 572 ng/mL
concentration at 4 h (iv, 15 mg kg^−1, Concentration, Supplementary Figure 6a, Time 4 h, individual replicates): 282 ng/mL
concentration at 7 h (iv, 15 mg kg^−1, Concentration, Supplementary Figure 6a, Time 7 h, individual replicates): 99.2 ng/mL
concentration at 16 h (iv, 15 mg kg^−1, Concentration, Supplementary Figure 6a, Time 16 h, individual replicates): 7.87 ng/mL
concentration at 0.167 h (iv, 15 mg kg^−1, Concentration, Time 0.167 h, individual animals, Supplementary Figure 12a): 306 ng/mL
concentration at 0.167 h (iv, 15 mg kg^−1, Concentration, Time 0.167 h, individual animals, Supplementary Figure 12b): 641 ng/mL
concentration at 0.5 h (iv, 15 mg kg^−1, Concentration, Time 0.5 h, individual animals, Supplementary Figure 12a): 175 ng/mL
concentration at 0.5 h (iv, 15 mg kg^−1, Concentration, Time 0.5 h, individual animals, Supplementary Figure 12b): 938 ng/mL
concentration at 1 h (iv, 15 mg kg^−1, Concentration, Time 1 h, individual animals, Supplementary Figure 12a): 146 ng/mL
concentration at 1 h (iv, 15 mg kg^−1, Concentration, Time 1 h, individual animals, Supplementary Figure 12b): 783 ng/mL
concentration at 2 h (iv, 15 mg kg^−1, Concentration, Time 2 h, individual animals, Supplementary Figure 12a): 86.8 ng/mL
concentration at 2 h (iv, 15 mg kg^−1, Concentration, Time 2 h, individual animals, Supplementary Figure 12b): 510 ng/mL
concentration at 4 h (iv, 15 mg kg^−1, Concentration, Time 4 h, individual animals, Supplementary Figure 12b): 322 ng/mL
concentration at 7 h (iv, 15 mg kg^−1, Concentration, Time 7 h, individual animals, Supplementary Figure 12a): 22.8 ng/mL
concentration at 0.167 h (po, 200 mg kg^−1, Concentration, Time 0.167 h, individual animals, Supplementary Figure 12a): 155 ng/mL
concentration at 0.5 h (po, 200 mg kg^−1, Concentration, Time 0.5 h, individual animals, Supplementary Figure 12a): 968 ng/mL
concentration at 0.5 h (po, 200 mg kg^−1, Concentration, Time 0.5 h, individual animals, Supplementary Figure 12b): 692 ng/mL
concentration at 1 h (po, 200 mg kg^−1, Concentration, Time 1 h, individual animals, Supplementary Figure 12b): 841 ng/mL
concentration at 2 h (po, 200 mg kg^−1, Concentration, Time 2 h, individual animals, Supplementary Figure 12a): 2500 ng/mL
concentration at 4 h (po, 200 mg kg^−1, Concentration, Time 4 h, individual animals, Supplementary Figure 12a): 3420 ng/mL
concentration at 7 h (po, 200 mg kg^−1, Concentration, Time 7 h, individual animals, Supplementary Figure 12a): 1870 ng/mL
concentration at 7 h (po, 200 mg kg^−1, Concentration, Time 7 h, individual animals, Supplementary Figure 12b): 1070 ng/mL
concentration at 16 h (po, 200 mg kg^−1, Concentration, Time 16 h, individual animals, Supplementary Figure 12b): 2410 ng/mL
concentration at 0.5 h (po, 400 mg kg^−1, Concentration, Supplementary Figure 6a, Time 0.5 h, individual replicates): 644 ng/mL
concentration at 1 h (po, 400 mg kg^−1, Concentration, Supplementary Figure 6a, Time 1 h, individual replicates): 1700 ng/mL
concentration at 2 h (po, 400 mg kg^−1, Concentration, Supplementary Figure 6a, Time 2 h, individual replicates): 787 ng/mL
concentration at 4 h (po, 400 mg kg^−1, Concentration, Supplementary Figure 6a, Time 4 h, individual replicates): 398 ng/mL
concentration at 7 h (po, 400 mg kg^−1, Concentration, Supplementary Figure 6a, Time 7 h, individual replicates): 473 ng/mL
concentration at 16 h (po, 400 mg kg^−1, Concentration, Supplementary Figure 6a, Time 16 h, individual replicates): 572 ng/mL
Concentration (i.v., Time 0.167 h, individual animals, Supplementary Figure 12a): 324 ng/mL and 426 ng/mL
Concentration (i.v., Time 0.5 h, individual animals, Supplementary Figure 12a): 148 ng/mL and 180 ng/mL
Concentration (i.v., Time 1 h, individual animals, Supplementary Figure 12a): 168.8 ng/mL and 187.8 ng/mL
Concentration (i.v., Time 1 h, individual animals, Supplementary Figure 12b): 1480 ng/mL and 1110 ng/mL
Concentration (i.v., Time 2 h, individual animals, Supplementary Figure 12a): 50 ng/mL and 64 ng/mL
Concentration (i.v., Time 2 h, individual animals, Supplementary Figure 12b): 498 ng/mL and 604 ng/mL
Concentration (i.v., Time 4 h, individual animals, Supplementary Figure 12a): 45.8 ng/mL and 21 ng/mL and 26 ng/mL
Concentration (i.v., Time 4 h, individual animals, Supplementary Figure 12b): 244 ng/mL and 464 ng/mL
Concentration (i.v., Time 7 h, individual animals, Supplementary Figure 12a): 12.78 ng/mL
Concentration (i.v., Time 7 h, individual animals, Supplementary Figure 12b): 206 ng/mL and 134 ng/mL and 272 ng/mL
Concentration (i.v., Time 16 h, individual animals, Supplementary Figure 12b): 25.9 ng/mL and 66.9 ng/mL and 61.2 ng/mL
Concentration (i.v., Time 24 h, individual animals, Supplementary Figure 12b): 6.26 ng/mL and 32.6 ng/mL and 25 ng/mL
Concentration (p.o., Time 0.167 h, individual animals, Supplementary Figure 12b): 181 ng/mL
Concentration (p.o., Time 0.5 h, individual animals, Supplementary Figure 12a): 788 ng/mL and 600 ng/mL
Concentration (p.o., Time 2 h, individual animals, Supplementary Figure 12a): 2100 ng/mL and 1302 ng/mL
Concentration (p.o., Time 4 h, individual animals, Supplementary Figure 12a): 2980 ng/mL and 1762 ng/mL
Concentration (p.o., Time 7 h, individual animals, Supplementary Figure 12a): 1768 ng/mL and 1234 ng/mL
Concentration (p.o., Time 16 h, individual animals, Supplementary Figure 12a): 414 ng/mL and 996 ng/mL and 1288 ng/mL
Concentration (p.o., Time 24 h, individual animals, Supplementary Figure 12a): 996 ng/mL and 508 ng/mL and 280 ng/mL
Compound: O=C(O)c1ccc(F)c(F)c1Nc1ccc(I)cc1F [PD315209, reference compound]
Concentration (p.o., Time 0.167 h, individual animals, Supplementary Figure 12a): 145.8 ng/mL and 107.6 ng/mL and 206 ng/mL and 132.6 ng/mL and 193 ng/mL
Concentration (p.o., Time 1 h, individual animals, Supplementary Figure 12a): 1006 ng/mL and 784 ng/mL and 260 ng/mL and 1464 ng/mL and 1172 ng/mL and 1344 ng/mL
